Legend:
melanoma (B 16) = assay: MTT cytotoxicity assay, B16; assay type: cell-based, mouse; conditions: 72 h
Protocol: (§1) Example 2 describes the in vitro cytotoxicity, which is indicative of the induction of cell death and/or inhibition of cellular proliferation of cancer cells, of the Au(III)-NHC complexes on cervical epithelioid carcinoma, hepatocellular carcinoma, leukemia, nasopharyngeal carcinoma, breast carcinoma, melanoma, and lung carcinoma.
(§2) By means of MTT assays, the cytotoxic properties of 1-11 were determined toward some established human cancer cell lines including hepatocellular carcinoma (HepG2), cervical epithelioid carcinoma (HeLa), lung carcinoma (NCI-H460), breast cancer (MCF-7), melanoma (B 16) and nasopharyngeal carcinoma (SUNE1).

[1] = system: nasopharyngeal carcinoma (SUNE1); assay: MTT cytotoxicity assay, SUNE1; assay type: cell-based, human; conditions: 72 h
Protocol: as §1, §2

[2] = system: lung carcinoma (NCI-H460); assay: MTT cytotoxicity assay, NCI-H460; assay type: cell-based, human; conditions: 72 h
Protocol: as §1, §2

[3] = system: cervical epithelioid carcinoma (HeLa); assay: MTT cytotoxicity assay, HeLa; assay type: cell-based, human; conditions: dose required to inhibit 50% cellular growth for 72 h
Protocol: as §1, §2

[4] = system: hepatocellular carcinoma (HepG2); assay: MTT cytotoxicity assay, HepG2; assay type: cell-based, human; conditions: 72 h
Protocol: as §1, §2

breast cancer (MCF-7) = assay: MTT cytotoxicity assay, MCF-7; assay type: cell-based, human; conditions: 72 h
Protocol: as §1, §2

[5] = system: Thioredoxin reductase (TrxR); conditions: HeLa cells incubated for 1 h; compared with auranofin
Protocol: Cell-based TrxR activity experiment was incorporated in our experiments. […] The cell lysates (10 μg proteins) were added to a buffer (100 μL) containing 100 mM potassium phosphate, pH 7.4, 1 mM EDTA and 0.2 mM NADPH. Reaction was initiated by adding 5,5′-dithiobis(2-nitrobenzoic acid) (DTNB, 3 mM final) and the TrxR activities were determined as increases in O.D. 410 nm in 10 min.

[6] = Preliminary toxicity experiment in mice; assay type: in vivo
HeLa xenograft = assay: In vivo tumor inhibition, mice bearing HeLa xenograft; conditions: 3 mg/kg, nude mice bearing HeLa xenograft
Protocol: Female BALB/cAnN-nu (Nude), 5-7 weeks old, were purchased from the Charles River Laboratories (Wilmington, Mass.) and cared for according to the guidelines of the Laboratory Animal Unit of the University of Hong Kong (HKU). All animal experiments were conducted under the guidelines approved by the Committee on the Use of Live Animals in Teaching and Research of HKU. To establish the HeLa xenograft model, 4×10^6 HeLa cells suspended in 100 μl of PBS were inoculated into the back flanks of female BALB/cAnN-nu (Nude) mice by subcutaneous injection. When the tumor volumes reached about 50 mm^3 (4 days after tumor inoculation), the mice were randomly divided into different treatment groups (3 mg/kg of 5 or solvent control). Complex 5 was reconstituted in PET diluent (60% polyethylene glycol 400, 30% ethanol, 10% Tween 80). Complex 5 dissolved in PET diluent and then diluted in PBS or PBS supplemented with equal amount of PET were injected into the mice by intratumoral injection once every three days until the mice were sacrificed. In this model, the volume of PET diluent injected into each mouse was ≦6 μl. Tumor sizes were measured once every 3 times a week, and tumor volume (V) was calculated by the formula V=ab^2×0.52, where a and b were the longest and the shortest diameters of the xenografted tumor. The tumor inhibition was calculated according to the following formula: Inhibition percentage=[1−(V−V0)/(V′−V0′)]×100% where V and V′ are the tumor volumes of 5 treatment and solvent control, respectively. V0 and V0′ are the initial tumor volumes of the 5 treatment and solvent control, respectively.

HeLa cells = assay: Fluorescence microscopic examination of HeLa cells; assay type: cell-based, human; conditions: 20 μM, 10 min, ex 340 nm
Protocol: Fluorescence microscopic examination 9: HeLa cells (1×10^5 cells) were seeded in a one chamber slide (Nalgene; Nunc) with culture medium (2 mLwell^−1) and incubated at 37° C. in a humidified atmosphere of 5% CO2/95% air for 24 h. After treating with 9 (20 μM, 1 mL) for 10 min, cells were directly exposed for fluorescent imaging without removing the old medium. The bright-field and fluorescent images (ex: 340 nm) were examined in Axiovert 200 (Carl Zeiss) and in an Axio Vision Rel. 4.5 imaging system (Carl Zeiss).

PARP, caspase 3, 7 and 9 = assay: Western blotting of apoptosis related proteins in HeLa cells; assay type: cell-based, human; conditions: 15 μM, 48 h
Protocol: Meanwhile, considerable attention has been paid on apoptosis for which can lead cancer cell death. After treating HeLa cells with 15 μM of complex 9 for 48 h, apoptosis related PARP, caspase 3, 7 and 9 were activated according to western blotting results (FIG. 4b).

| SMILES | IC50 (melanoma (B 16)) | IC50 [1] | IC50 [2] | IC50 [3] | IC50 [4] | IC50 (breast cancer (MCF-7)) | Inhibition of cell-based TrxR activity [5] | Toxicity to mice at 7 mg/kg (body weight) ([6]; 7 mg/kg) | Toxicity to mice at 20 mg/kg ([6]; 20 mg/kg) | Tumor inhibition after 11 days (HeLa xenograft; intratumoral injection once every three days, 11 days (p<0.05)) | Tumor inhibition after 14 days (HeLa xenograft; intratumoral injection once every three days, 14 days (p<0.01)) | Mouse death / mouse body weight loss during treatment (HeLa xenograft; intratumoral) | Cellular fluorescence (localisation) (HeLa cells) | Activation of apoptosis related PARP, caspase 3, 7 and 9 (western blotting) (PARP, caspase 3, 7 and 9) |
| --- | --- | --- | --- | --- | --- | --- | --- | --- | --- | --- | --- | --- | --- | --- |
| CCCCCCCCn1cc[n+](C)[c]1[Au-]12[n]3ccnc3-c3cccc([n+]31)-c1ncc[n]12.O=S(=O)([O-])C(F)(F)F [Complex 3] | 3.8 ± 0.1 µM | 8.9 ± 0.6 µM | 17.3 ± 0.3 µM | 14 ± 0.3 µM | 14.7 ± 1.5 µM | 8.5 ± 0.2 µM |  |  |  |  |  |  |  |  |
| Cn1cc[n+](C)[c]1[Au-]12[n]3ccnc3-c3cccc([n+]31)-c1ncc[n]12.O=S(=O)([O-])C(F)(F)F [Complex 1] | 30.6 ± 0.3 µM | 28.7 ± 7.3 µM | 55 ± 8.5 µM | 32.9 ± 1.3 µM | 36.2 ± 2.2 µM | 18.4 ± 0.3 µM | can inhibit cell-based TrxR activity similarly to auranofin |  |  |  |  |  |  |  |
| CCCCCCn1cc[n+](CCCCCC)[c]1[Au-]12[n]3c(nc4ccccc43)-c3cccc([n+]31)-c1nc3ccccc3[n]12.O=S(=O)([O-])C(F)(F)F [Complex 11] | 5.5 ± 0.1 µM | 3.1 ± 0.3 µM | 5 ± 0.1 µM | 8.4 ± 0.1 µM | 2.6 ± 0.4 µM | 4 ± 0.1 µM |  |  |  |  |  |  |  |  |
| CCCCCCCCCCn1cc[n+](C)[c]1[Au-]12[n]3ccnc3-c3cccc([n+]31)-c1ncc[n]12.O=S(=O)([O-])C(F)(F)F [Complex 4] | 1.6 ± 0.1 µM | 5.5 ± 0.3 µM | 9.7 ± 0.4 µM | 8.2 µM | 11.8 ± 1.2 µM | 6.5 ± 0.5 µM |  |  |  |  |  |  |  |  |
| CCCCn1cc[n+](CCCC)[c]1[Au-]12[n]3ccnc3-c3cccc([n+]31)-c1ncc[n]12.O=S(=O)([O-])C(F)(F)F [Complex 6] | 8.3 ± 0.2 µM | 9.9 ± 0.2 µM | 7.9 ± 1.1 µM | 13 ± 1.6 µM | 28.7 ± 5.9 µM | 12.9 ± 2 µM |  |  |  |  |  |  |  |  |
| C[n+]1ccn(CCC[P+](c2ccccc2)(c2ccccc2)c2ccccc2)[c]1[Au-]12[n]3ccnc3-c3cccc([n+]31)-c1ncc[n]12.O=S(=O)([O-])C(F)(F)F.O=S(=O)([O-])C(F)(F)F [Complex 8] | 36.8 ± 0.9 µM | 47.3 ± 6.2 µM | 65.4 ± 1.1 µM | 77.4 ± 1.8 µM |  | 49.7 ± 3 µM |  |  |  |  |  |  |  |  |
| CCCCCCCCCCCCCCCCn1cc[n+](C)[c]1[Au-]12[n]3ccnc3-c3cccc([n+]31)-c1ncc[n]12.O=S(=O)([O-])C(F)(F)F [Complex 5] | 2.2 ± 0.1 µM | 28.6 ± 0.3 µM | 1.4 ± 0.1 µM | 1.4 ± 0.2 µM | 3.3 ± 0.5 µM | 2.9 ± 0.2 µM |  | slight drop of body weight | toxic to mice | up to 60% | ≤ 76% | No mouse death or mouse body weight loss was found |  |  |
| Cn1cc[n+](C)[c]1[Au-]12[n]3c(nc4ccccc43)-c3cccc([n+]31)-c1nc3ccccc3[n]12.O=S(=O)([O-])C(F)(F)F [Complex 9] | 12.4 ± 0.1 µM | 11.2 ± 0.6 µM | 11.2 ± 0.7 µM | 14.4 µM | 18 ± 0.5 µM | 11.9 ± 1 µM | can inhibit cell-based TrxR activity similarly to auranofin |  |  |  |  |  | significant blue fluorescence was detected in cytoplasm but not in nucleus or extracellular environment | activated |
| CCCCn1cc[n+](CCCC)[c]1[Au-]12[n]3c(nc4ccccc43)-c3cccc([n+]31)-c1nc3ccccc3[n]12.O=S(=O)([O-])C(F)(F)F [Complex 10] | 5.2 ± 0.2 µM | 5.2 ± 1.6 µM | 5.5 ± 0.3 µM | 9.2 ± 0.4 µM | 14.7 ± 1.1 µM | 8.7 ± 0.2 µM |  |  |  |  |  |  |  |  |
| CCCCCCn1cc[n+](CCCCCC)[c]1[Au-]12[n]3ccnc3-c3cccc([n+]31)-c1ncc[n]12.O=S(=O)([O-])C(F)(F)F [Complex 7] | 7.7 ± 1 µM | 36.8 ± 1.6 µM | 34.6 ± 3.1 µM | 8.2 µM | 9.1 ± 0.3 µM | 8.6 ± 0.1 µM |  |  |  |  |  |  |  |  |

— US8828984B2, “Gold(III) complexes containing N-heterocyclic carbene ligand, synthesis, and their applications in cancer treatment and thiol detection” (University of Hong Kong, priority 2012, dated 2014)
